Measurements as given in patent US20050014789A1, “Amide derivatives as selective serotonin re-uptake inhibitors” (Pfizer Inc, priority 2003, published 2005).

Tests used:
Type in all cases: cell-based
[1] = biological target: T1, human serotonin transporter (hSERT) (Homo sapiens, UniProt P31645); experiment: Inhibition of 3H-serotonin uptake in HEK-293 cells expressing hSERT; settings: HEK-293 hSERT cells, 3H-5HT 50 nM, 5 min incubation; read-out: serotonin re-uptake inhibition (SRI) IC50
T1 construct: expressed in transfected cells
T1 sequence (P31645 whole entry): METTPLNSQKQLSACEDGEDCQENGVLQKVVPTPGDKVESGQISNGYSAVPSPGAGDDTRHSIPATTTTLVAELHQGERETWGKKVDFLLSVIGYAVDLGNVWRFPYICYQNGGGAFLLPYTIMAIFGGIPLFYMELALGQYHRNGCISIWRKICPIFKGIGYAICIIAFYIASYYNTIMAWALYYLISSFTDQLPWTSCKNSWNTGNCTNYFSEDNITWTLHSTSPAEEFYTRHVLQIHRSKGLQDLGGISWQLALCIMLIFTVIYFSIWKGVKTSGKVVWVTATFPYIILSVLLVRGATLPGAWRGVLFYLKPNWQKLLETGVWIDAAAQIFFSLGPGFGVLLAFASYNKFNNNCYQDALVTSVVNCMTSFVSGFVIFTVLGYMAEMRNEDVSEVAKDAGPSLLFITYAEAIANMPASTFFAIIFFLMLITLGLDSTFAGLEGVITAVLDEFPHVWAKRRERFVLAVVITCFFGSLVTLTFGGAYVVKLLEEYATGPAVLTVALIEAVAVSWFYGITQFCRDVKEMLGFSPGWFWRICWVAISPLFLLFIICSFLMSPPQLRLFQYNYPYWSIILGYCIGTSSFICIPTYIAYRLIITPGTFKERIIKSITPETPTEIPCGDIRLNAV
Method: (§1) Cells were harvested for the assay to yield a cell suspension of 750,000 cells/ml. […] Assays were carried out in 96-well filter bottom plates. […] All reactions were carried out at room temperature in a shaking incubator. Incubation times were 5 minutes for the hSERT and hDAT assays and 15 minutes for the hNET assay. Reactions were terminated by removal of the reaction mixture using a vacuum manifold followed by rapid washing with ice cold assay buffer. The quantity of ^3H-substrate incorporated into the cells was then quantified. Assay plates were dried in a microwave oven, scintillation fluid added, and radioactivity measured. […] Note: The pH of the buffer was adjusted to 7.40 with 1M NaOH before addition of CaCl2 and pargyline.

[2] = biological target: T2, noradrenaline transporter (hNET) (Homo sapiens, UniProt P23975); experiment: Inhibition of 3H-noradrenaline uptake in HEK-293 cells expressing hNET
T2 construct: expressed in transfected cells
T2 sequence (P23975 whole entry): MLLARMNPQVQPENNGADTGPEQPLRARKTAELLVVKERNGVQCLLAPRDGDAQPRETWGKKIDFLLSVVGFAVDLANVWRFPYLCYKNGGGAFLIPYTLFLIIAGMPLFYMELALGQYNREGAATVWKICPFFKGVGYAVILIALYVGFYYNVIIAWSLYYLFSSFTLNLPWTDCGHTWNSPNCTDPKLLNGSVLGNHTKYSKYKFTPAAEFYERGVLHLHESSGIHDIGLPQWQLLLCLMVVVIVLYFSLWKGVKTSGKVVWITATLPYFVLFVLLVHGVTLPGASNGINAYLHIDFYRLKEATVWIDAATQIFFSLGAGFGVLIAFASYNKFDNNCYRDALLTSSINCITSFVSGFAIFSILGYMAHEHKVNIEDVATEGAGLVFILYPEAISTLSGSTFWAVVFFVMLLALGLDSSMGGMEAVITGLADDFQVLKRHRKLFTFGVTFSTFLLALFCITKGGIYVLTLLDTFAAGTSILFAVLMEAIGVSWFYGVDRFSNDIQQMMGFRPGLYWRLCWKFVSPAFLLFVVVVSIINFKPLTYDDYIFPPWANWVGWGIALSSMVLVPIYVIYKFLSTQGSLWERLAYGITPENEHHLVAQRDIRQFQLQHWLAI
Method: Cells were harvested for the assay to yield a cell suspension of 750,000 cells/ml. All test compounds were dissolved in 100% DMSO and diluted down in assay buffer to give appropriate test concentrations. Assays were carried out in 96-well filter bottom plates. […] All reactions were carried out at room temperature in a shaking incubator. Incubation times were 5 minutes for the hSERT and hDAT assays and 15 minutes for the hNET assay. Reactions were terminated by removal of the reaction mixture using a vacuum manifold followed by rapid washing with ice cold assay buffer. The quantity of ^3H-substrate incorporated into the cells was then quantified. Assay plates were dried in a microwave oven, scintillation fluid added, and radioactivity measured. […] Note: The pH of the buffer was adjusted to 7.40 with 1M NaOH before addition of CaCl2 and pargyline. [table]

[3] = biological target: T3, dopamine transporter (hDAT) (Homo sapiens, UniProt Q01959); experiment: Inhibition of 3H-dopamine uptake in HEK-293 cells expressing hDAT
T3 construct: expressed in transfected cells
T3 sequence (Q01959 whole entry): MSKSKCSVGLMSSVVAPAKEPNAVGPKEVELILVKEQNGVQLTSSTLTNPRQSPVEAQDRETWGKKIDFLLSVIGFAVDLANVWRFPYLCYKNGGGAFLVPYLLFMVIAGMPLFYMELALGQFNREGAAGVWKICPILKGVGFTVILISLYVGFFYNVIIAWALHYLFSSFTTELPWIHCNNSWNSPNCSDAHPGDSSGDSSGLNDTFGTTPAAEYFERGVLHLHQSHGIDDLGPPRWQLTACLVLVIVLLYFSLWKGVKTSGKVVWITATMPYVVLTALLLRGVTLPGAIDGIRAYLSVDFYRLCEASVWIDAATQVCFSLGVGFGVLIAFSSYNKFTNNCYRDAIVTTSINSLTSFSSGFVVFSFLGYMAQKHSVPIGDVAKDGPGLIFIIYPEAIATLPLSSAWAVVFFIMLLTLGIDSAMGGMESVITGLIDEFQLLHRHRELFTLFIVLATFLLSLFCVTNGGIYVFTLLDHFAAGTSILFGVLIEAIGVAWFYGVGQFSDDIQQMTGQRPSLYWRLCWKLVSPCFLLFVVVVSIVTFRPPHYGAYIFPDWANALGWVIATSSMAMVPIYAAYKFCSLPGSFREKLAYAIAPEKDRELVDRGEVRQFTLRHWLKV
Method: as §1

SMILES: CC(C)CN(C(=O)c1ccc2ccccc2c1)[C@@H]1CCNC1.Cl [Example 23, N-Isobutyl-N-[(3R)-pyrrolidin-3-yl]-2-naphthamide hydrochloride]
- IC50 [1]: 4.7 nM
- IC50 ([2]; HEK-293 hNET cells, 3H-Noradrenaline 200 nM, 15 min incubation, read-out: noradrenaline re-uptake inhibition IC50): 1230 nM
- fold more potent (serotonin re-uptake) over noradrenaline re-uptake ([2]; selectivity hSERT vs hNET): 261 fold
- IC50 ([3]; HEK-293 hDAT cells, 3H-Dopamine 200 nM, 5 min incubation, read-out: dopamine re-uptake inhibition IC50): 9490 nM
- fold more potent (serotonin re-uptake) over dopamine re-uptake ([3]; selectivity hSERT vs hDAT): 2018 fold
